Experimental data reported in patent US11059808B2, “Substituted phenylpyrrolecarboxamides with therapeutic activity in HIV” (New York Blood Center, Inc., priority 2014, dated 2021).

Tests used:
Format in all cases: cell-based
[1] = Cytotoxicity in TZM-bl cells (XTT); conditions: human, XTT, 3 days
Procedure: (§1) The cytotoxicity of test compounds in TZM-bl cells was also measured by the XTT method described previously^7. […] The soluble intracellular formazan was quantitated colorimetrically at 450 nm 4 h later. The percent of cytotoxicity and the CC50 values were calculated as above. (See Table 4)

[2] = tested on: HIV-1 pseudovirus pseudotyped with HXB2 Env; assay: microbe, parasite or virus in culture; conditions: single cycle assay, TZM-bl cells infected with HIV-1 pseudovirus pseudotyped with HXB2 Env;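 note: endpoint is IC50 for inhibition of pseudovirus infection of TZM-bl cells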
TZM-bl cells = assay: Cytotoxicity in TZM-bl cells (XTT); conditions: XTT, 3 days
Procedure: as §1

[3] = Human immunodeficiency virus 1, HXB2, TZM-bl

Row | Structure (SMILES) | CC50 at 3 days [1] | IC50 [2] | CC50 (TZM-bl cells) | IC50 [2, 3]
1 | Cc1nc(C(CCN(C)C)NC(=O)c2ccc(-c3ccc(Cl)cc3)[nH]2)sc1CO (single isomer, unassigned) [Compound 76] | 21.7 ± 1 µM | – | – | –
2 | Cc1ccc(-c2ccc(C(=O)NC(c3nc(C)c(CCCO)s3)C3CCCCN3)[nH]2)cc1F (single isomer, unassigned) [Compound 30] | 17 ± 0.7 µM | – | – | –
3 | CN1CCN(NC(=O)C(CCCNC(=N)N)NC(=O)c2ccc(-c3ccc(Cl)cc3)[nH]2)CC1 (stereo not drawn) [Compound 8] | > 42 µM | – | – | –
4 | Cc1nc(C(CN(C)C)NC(=O)c2ccc(-c3ccc(Cl)c(F)c3)[nH]2)sc1CO (single isomer, unassigned) [Compound 68] | – | 7.2 ± 3 µM | ~29 µM | –
5 | CNCC(NC(=O)c1ccc(-c2ccc(Cl)c(F)c2)[nH]1)c1ncc(CO)s1 (single isomer, unassigned) [Compound 115] | – | – | 17.3 ± 0.5 µM | 0.95 ± 0.03 µM
6 | Cc1ccc(-c2ccc(C(=O)NC(CN(C)C)c3nc(C)c(CO)s3)[nH]2)cc1F (single isomer, unassigned) [Compound 65] | – | 6.3 ± 1.8 µM | > 40 µM | –
7 | Cc1nc(C(CNC(C)C)NC(=O)c2ccc(-c3ccc(Cl)cc3)[nH]2)sc1CO (single isomer, unassigned) [Compound 107] | – | – | 28.5 ± 3.5 µM | 4.2 ± 0.3 µM
8 | CNCC(NC(=O)c1ccc(-c2cc(F)c(Cl)c(F)c2)[nH]1)c1ncc(CO)s1 (single isomer, unassigned) [Compound 128] | – | 0.36 ± 0.04 µM | 10.4 ± 0.8 µM | –
9 | Cc1ccc(-c2ccc(C(=O)NC(CCN(C)C)c3nc(C)c(CO)s3)[nH]2)cc1F (single isomer, unassigned) [Compound 73] | – | 6.6 ± 0.2 µM | 37.1 ± 5.7 µM | –
10 | Cc1nc(C(CNC(=N)N)NC(=O)c2ccc(-c3ccc(Cl)c(F)c3)[nH]2)sc1CO (single isomer, unassigned) [Compound 47] | – | ≥ 20 µM | > 36 µM | –
11 | Cc1ccc(-c2ccc(C(=O)NC(c3nc(C)c(CO)s3)C(C)(C)N)[nH]2)cc1F (single isomer, unassigned) [Compound 114] | – | 0.34 ± 0.02 µM | 17.8 ± 0.3 µM | –
12 | Cc1nc(C(NC(=O)c2ccc(-c3ccc(Cl)c(F)c3)[nH]2)C2CCCCN2)sc1CCO (single isomer, unassigned) [Compound 27] | – | 8 ± 0.1 µM | 15.1 ± 0.2 µM | –
13 | CNCCC(NC(=O)c1ccc(-c2ccc(Cl)c(F)c2)[nH]1)c1nc(C)c(CO)s1 (single isomer, unassigned) [Compound 81] | – | 1.5 ± 0.4 µM | 22 ± 0.6 µM | –
14 | CNCC(NC(=O)c1ccc(-c2ccc(Cl)c(F)c2)[nH]1)c1ncc(CO)s1 (single isomer, unassigned) [Compound 116] | – | 1.4 ± 0.05 µM | 17.4 ± 0.4 µM | –
15 | Cc1nc(C(NC(=O)c2ccc(-c3ccc(Cl)c(F)c3)[nH]2)C2CCCCN2)sc1CO (single isomer, unassigned) [Compound 21] | – | 3.2 ± 0.5 µM | 17.4 ± 1.6 µM | –
16 | Cc1nc(C(NC(=O)c2ccc(-c3ccc(Cl)cc3)[nH]2)C2CCCCN2)sc1CCO (single isomer, unassigned) [Compound 29] | – | 5.9 ± 0.2 µM | 15.4 ± 0.3 µM | –
17 | Cc1ccc(-c2ccc(C(=O)NC(CCN)c3nc(C)c(CO)s3)[nH]2)cc1F (single isomer, unassigned) [Compound 85] | – | 4.2 ± 1.7 µM | 43.8 ± 1.6 µM | –
18 | Cc1nc(C(CCN(C)C)NC(=O)c2ccc(-c3ccc(Cl)cc3)[nH]2)sc1CO (single isomer, unassigned) [Compound 77] | – | 10.4 ± 2 µM | 40.2 ± 3 µM | –
19 | CNCC(NC(=O)c1ccc(-c2ccc(C)c(F)c2)[nH]1)c1ncc(CO)s1 (single isomer, unassigned) [Compound 117] | – | – | 27.4 ± 0.8 µM | 1 ± 0.2 µM
20 | Cc1nc(C(CN)NC(=O)c2ccc(-c3ccc(Cl)cc3)n2C)sc1CO (single isomer, unassigned) [Compound 91] | – | – | 35.8 ± 0.3 µM | 26 ± 1.4 µM
21 | Cc1nc(C(CCN)NC(=O)c2ccc(-c3ccc(Cl)c(F)c3)[nH]2)sc1CO (single isomer, unassigned) [Compound 87] | – | 6.6 ± 2 µM | 35 ± 3 µM | –
